This passage reports IC50 results from patent US11608341B2, “Substituted tetrahydropyrazolo[3,4-d]pyrimidines and tetrahydropyrazolo[4,3-d]pyrimidines as C5A receptor modulators” (Idorsia Pharmaceuticals Ltd., priority 2018, dated 2023).

The test deals with T1, C5AR1 (Homo sapiens, UniProt P21730).
T1 construct: host or cells: CHO-K1
T1 sequence (P21730 1-350): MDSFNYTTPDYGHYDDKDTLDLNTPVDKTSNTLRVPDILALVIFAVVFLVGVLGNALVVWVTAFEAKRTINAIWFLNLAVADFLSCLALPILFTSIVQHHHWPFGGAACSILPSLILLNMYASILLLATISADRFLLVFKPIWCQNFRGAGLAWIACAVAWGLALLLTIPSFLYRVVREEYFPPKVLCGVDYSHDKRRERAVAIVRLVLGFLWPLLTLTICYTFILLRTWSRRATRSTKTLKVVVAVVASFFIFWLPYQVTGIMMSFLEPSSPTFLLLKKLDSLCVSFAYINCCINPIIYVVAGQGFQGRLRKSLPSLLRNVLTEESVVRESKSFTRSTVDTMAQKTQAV
Put plainly: In vitro assay: antagonism of C5a-induced beta-arrestin recruitment (PathHunter) in CHO-K1 C5AR1 beta-arrestin cell line. The test is classed as cell-based. The note with it: antagonistic activity, 1-10 nM C5a agonist, geometric mean where several measurements, read-out: C5aR IC50. The essentials: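 Antagonist or DMSO added first, then C5a (1-10 nM, added at 6-fold end concentration), 1.5 h at 37 °C. PathHunter detection reagent was added for 45 min at RT before plate reading. IC50s come from antagonist serial dilutions in nmol/l and are geometric means of several measurements.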

On to `Cc1cccc(F)c1N1CCC(N2Cc3cn(CC4CCCN4C(=O)OC(C)(C)C)nc3N(Cc3ccccc3C(F)(F)F)C2=O)CC1` (centres unmarked) [Example 97], for which the IC50 worked out at 30 nM.
With `COc1ncnc(OC)c1N1CCC(N2Cc3cn(C)nc3N(Cc3ccccc3C(F)(F)F)C2=O)CC1` [Example 100], the IC50 is 339 nM.
The figure for `Cc1cccc(F)c1N1CCC(N2Cc3cn(CC(C)(C)NS(=O)(=O)c4ccc(Cl)cc4)nc3N(Cc3ccccc3C(F)(F)F)C2=O)CC1` [Example 101] is 22 nM; for `CCN1CC(n2cc3c(n2)N(Cc2ccccc2C(F)(F)F)C(=O)N(C2CCN(c4c(C)cccc4F)CC2)C3)C1` [Example 103] it is 351 nM.
The figure for `Cc1cccc(F)c1N1CCC(N2Cc3cn(C4CN(CC(C)C)C4)nc3N(Cc3ccccc3C(F)(F)F)C2=O)CC1` [Example 104] is 146 nM; for `Cc1cccc(F)c1N1CCC(N2Cc3cn(C4CN(CC(F)F)C4)nc3N(Cc3ccccc3C(F)(F)F)C2=O)CC1` [Example 106] it is 24 nM; for `Cc1cccc(F)c1N1CCC(N2Cc3cn(C4CN(CCF)C4)nc3N(Cc3ccccc3C(F)(F)F)C2=O)CC1` [Example 107] it is 52 nM.
The figure for `Cc1cccc(F)c1N1CCC(N2Cc3cn(C[C@H]4CC(F)(F)CN4C(=O)OC(C)(C)C)nc3N(Cc3ccccc3C(F)(F)F)C2=O)CC1` [Example 108] is 21 nM.
Turning to `Cc1cccc(F)c1N1CCC(N2Cc3cn(C[C@@H]4CC(F)(F)CN4C(=O)OC(C)(C)C)nc3N(Cc3ccccc3C(F)(F)F)C2=O)CC1` [Example 109], the IC50 was 27 nM.
The same measure for `Cc1cccc(F)c1N1CCC(N2Cc3cn(CC(C)(C)NS(=O)(=O)c4ccccc4[N+](=O)[O-])nc3N(Cc3ccccc3C(F)(F)F)C2=O)CC1` [Example 110]: 28 nM; for `Cc1cccc(F)c1N1CCC(N2Cc3cn(C[C@H]4CC(F)(F)CN4)nc3N(Cc3ccccc3C(F)(F)F)C2=O)CC1` [Example 111]: 29 nM; for `Cc1cccc(F)c1N1CCC(N2Cc3cn(C[C@@H]4CC(F)(F)CN4)nc3N(Cc3ccccc3C(F)(F)F)C2=O)CC1` [Example 112]: 18 nM.
The figure for `CC(=O)N1CCC(n2cc3c(n2)N(Cc2ccccc2C(F)(F)F)C(=O)N(C2CCN(c4c(C)cccc4F)CC2)C3)C1` (centres unmarked) [Example 113] is 110 nM; for `CC(=O)N1CCC1Cn1cc2c(n1)N(Cc1ccccc1C(F)(F)F)C(=O)N(C1CCN(c3c(C)cccc3F)CC1)C2` (centres unmarked) [Example 114] it is 107 nM.
The figure for `CC(=O)N1CCCC1Cn1cc2c(n1)N(Cc1ccccc1C(F)(F)F)C(=O)N(C1CCN(c3c(C)cccc3F)CC1)C2` (centres unmarked) [Example 115] is 137 nM; for `CC(=O)N1CC(n2cc3c(n2)N(Cc2ccccc2C(F)(F)F)C(=O)N(C2CCN(c4c(C)cccc4F)CC2)C3)C1` [Example 116] it is 844 nM; for `COC(=O)N1CC(n2cc3c(n2)N(Cc2ccccc2C(F)(F)F)C(=O)N(C2CCN(c4c(C)cccc4F)CC2)C3)C1` [Example 117] it is 33 nM.
On to `Cc1cccc(F)c1N1CCC(N2Cc3cn(CC(C)(C)N)nc3N(Cc3ccccc3C(F)(F)F)C2=O)CC1` [Example 118], for which the IC50 is 578 nM.
Take `Cc1cccc(F)c1N1CCC(N2Cc3cn(C4CN(C(=O)N(C)C)C4)nc3N(Cc3ccccc3C(F)(F)F)C2=O)CC1` [Example 119]: the IC50 was 296 nM.
Regarding `CNC(=O)N1CC(n2cc3c(n2)N(Cc2ccccc2C(F)(F)F)C(=O)N(C2CCN(c4c(C)cccc4F)CC2)C3)C1` [Example 120], the IC50 came to 1350 nM.
The figure for `Cc1cccc(F)c1N1CCC(N2Cc3cn(C[C@@H]4CCN4)nc3N(Cc3ccccc3C(F)(F)F)C2=O)CC1` [Example 122] is 342 nM; for `COC(=O)N1CC[C@H]1Cn1cc2c(n1)N(Cc1ccccc1C(F)(F)F)C(=O)N(C1CCN(c3c(C)cccc3F)CC1)C2` [Example 123] it is 19 nM; for `CCOC(=O)N1CC[C@H]1Cn1cc2c(n1)N(Cc1ccccc1C(F)(F)F)C(=O)N(C1CCN(c3c(C)cccc3F)CC1)C2` [Example 124] it is 13 nM.
